# Earlier results in patent US8557836B2 (priority 2008, dated 2013).
# System: M2 ion channel with mutations at M2 residues 27, 30, 31, and 34
# Conditions: mutations at M2 residues 27, 30, 31, and 34 in the M2 transmembrane domain; cited from earlier work
structure (smiles),measurement,value
"C1CCC2(CC1)CCN(C1=NCCN1)CC2 [BL-1743, 3-(4,5-dihydro-1H-imidazol-2-yl)-3-azaspiro[5,5]undecane hydroiodide, reference compound]",resistance to BL-1743 induced by amantadine resistance mutations,complete
